Holding throughout (assay type): in vivo, human
A short description of series [1]: Open-label study: intraocular pressure measurements. From the text: Subjects were instructed to apply bimatoprost 0.03% to the eyelid lash line once daily for 12 weeks using an applicator (Studio Basics Professional Tools Eye Applicators, Paris Presents Incorporated, Gumee, Ill.) for each upper eyelid each evening and, if necessary, to wipe the areas immediately around the eyelid afterward to remove excess medication. Periodic use of artificial tears was allowed, but only prior to administration of bimatoprost 0.03%.
Clinical Examinations. Assessments were conducted at baseline and at weekly study visits at weeks 1, 4, 8, 12 (end of treatment period), and 16 (post-treatment follow-up period). At each visit, subjects underwent a complete eye examination by an ophthalmologist that included intraocular pressure measurements, visual acuity, and biomicroscopy. Subjects were queried at each visit for adverse events and these were recorded by the investigator. The presence of periorbital darkening was noted and graded on a scale of 0 to 4, and adverse event data were collected at each visit during the treatment period.
Statistical Analyses. A 2-sided paired t-test was used to evaluate the intraocular pressure change from baseline, and the GEA change from week 1 to week 12 was compared using a Wilcoxon signed-rank test. Analysis of intraocular pressure was performed on a per-eye and per-subject basis. A significance level of 0.05 was used for all statistical tests. Categorical variables were summarized with frequency, count, and percentages.

Series [2] concerns eyelashes. As to the kind of experiment: Randomized vehicle-controlled study: overall eyelash prominence by GEA scale. The note with it: week 16; ITT; 0.03% solution once daily to upper eyelid margins (107/137); p<0.0001 vs vehicle. How it is done:
The objective of this study was to evaluate the safety and efficacy of bimatoprost 0.03% solution once daily compared with vehicle in increasing overall eyelash prominence following dermal administration to the upper eyelid margins.
During the screening visit, each subject was assessed for inclusion/exclusion criteria. Qualifying subjects were randomly allocated in a 1:1 ratio to treatment with bimatoprost 0.03% solution or vehicle, to be applied to both upper eyelid margins once daily in the evening for 4 months.
Subjects applied study medication to the upper eyelid margins using the supplied, disposable, single-use-per-eye applicator once daily in the evening for 4 months. Subjects were instructed to dab or blot any excess study medication runoff on the area outside the upper eyelash margin with a tissue or other absorbent cloth; the upper lid margin was to feel evenly and lightly moist without runoff. Subjects were instructed not to apply study medication to the lower eyelash line. […]
For the primary efficacy endpoint, a clinical response was defined as at least a 1-grade increase in the GEA score from baseline at month 4 (week 16). […] The proportion of subjects with at least a 1-grade increase from baseline was summarized by a frequency table and analyzed by the Pearson's chi-square test for 2-by-2 tables at each visit. […]

For series [3], the system named is eyelashes. As to the kind of experiment: Randomized vehicle-controlled study: digital image analysis of eyelash length, thickness/fullness, darkness. The note with it: week 16; p<0.0001 vs vehicle. From the text:
The primary efficacy variable was the change in GEA score from the baseline measurement to the month 4 (week 16) measurement. A clinical success was defined as at least a 1-grade increase from baseline. […] The digital image analysis was based on standardized equipment and subject preparation. Digital image analysis is a photographic process developed and performed by Canfield Scientific, Inc. The details regarding these processes are maintained by Canfield Scientific, Inc. and are available upon request. The information describing software and technical processes of digital image analysis is maintained in standard operating procedures (SOPs) and work instruction manuals on file at Canfield Scientific, Inc. Upper eyelash length was measured within a defined eyelash boundary for each eye, known as the full area of interest (AOI). For the digital image, the computer software divided the full AOI image into a series of 25 vertical pixel segments. Within each segment, the maximum upper eyelash length (defined as the maximum height of each segment) was measured in pixels. The mean number of pixels over all segments represented the upper eyelash length and was computed for each digital image across both eyes. Upper eyelash length was additionally measured in terms of millimeters (mm). […] Upper eyelash thickness/fullness was measured within 3 preset rectangular areas (proximal, medial, and distal, each 300×25 pixels) positioned at fixed distances from a standardized point on the eyelash margin. […] Eyelash thickness/fullness was assessed across both eyes as an average of the 3 rectangular areas (i.e., average progressive eyelash thickness), individually for the 3 areas (proximal, medial, and distal), within the full AOI, and within the spline (a narrow area approximately 5 pixels wide, bisecting the AOI). Upper eyelash thickness/fullness was additionally measured in terms of mm2. […] Upper eyelash darkness was determined by lash intensity of the upper eyelash area within the spline. […] Eyelash intensity was calculated within the full AOI and within the spline. […]

Another series relates to eyebrows. As to the kind of experiment: Eyebrow growth after chemotherapy-induced eyebrow loss (Example 3). The note with it: person, eyebrows lost after chemotherapy. The text has this:
A person participates in a clinical study for eyebrow growth. The patient has lost both their eyebrows as a result of recent treatments of chemotherapy. Bimatoprost 0.03% is applied along the eyebrow line of both eyes. After approximately 4 weeks, the person begins to experience eyebrow growth. […] The person is extremely satisfied with the results and no longer needs to apply make-up in place of real eyebrows.

Regarding `CCNC(=O)CCC/C=C\C[C@@H]1[C@@H](/C=C/[C@@H](O)CCc2ccccc2)[C@H](O)C[C@@H]1O` [bimatoprost], the “Mean change from baseline in intraocular pressure across all weeks (per eye)” value in series [1] (bimatoprost 0.03% once daily to eyelid lash line for 12 weeks, per eye) is on record as “+0.98 to −0.81 mm Hg”. In series [1] (bimatoprost 0.03% once daily to eyelid lash line for 12 weeks, per subject), the “Mean change from baseline in intraocular pressure across all weeks (per subject)” value is given as “+0.98 to −0.79 mm Hg”. Further, in series [1] (each time point), the “Mean change from baseline intraocular pressure at each time point” value was “less than 1 mm Hg”. Also, in series [1] (week 1, P=0.0470), the “Per-eye intraocular pressure change from baseline” value is listed as −0.81±2.72 mm Hg. The “Per-eye intraocular pressure change from baseline” value in series [1] (week 4, P=0.0412) was 0.98±3.23. Moreover, the “Clinical significance of changes in intraocular pressure” value in series [1] (within accepted variability of the test) was “not clinically significant”. Besides, the “Subjects with at least a 1-grade increase from baseline in overall eyelash prominence (GEA scale)” value with eyelashes [2] was 78.1%. In addition, in the series with eyelashes [3], the “Mean change from baseline in eyelash darkness, as darker eyelashes” value is 18%; the “Mean change from baseline in eyelash length, as increase in length” value was 25%; the “Mean change from baseline in eyelash thickness/fullness, as increase” value is 106%. Besides, the “Eyebrow outcome following the study” value with eyebrows is given as “full, long eyebrows”. The “Time until eyebrow growth begins” value in the series on eyebrows (applied along eyebrow line of both eyes) is reported as “approximately 4 weeks”.

(Values after patent US20130030055A1, “COMPOSITIONS AND METHODS FOR TREATING HAIR LOSS, HAIR THINNING, AND HAIR COLOR LOSS” (priority 2010, published 2013).)
